# Target: human IDO1 (Homo sapiens, UniProt P14902)
# Experiment: Assessment of human IDO-1 inhibitory activity in HEK cells (human IDO1/HEK293 cells, kynurenine read-out with Ehrlich reagent, absorbance 490 nm)
# Type: cell-based
# Set-up: expressed in transfected cells
# Conditions: HEK Human IDO-1 cellular assay
# Procedure: Exemplary compounds were tested for inhibition of IDO activity.
# Assessment of Human IDO-1 Inhibitory Activity in HEK Cells
# HEK293 cells were transfected with a pCDNA-based mammalian expression vector harboring human IDO1 cDNA (NM 002164.2) by electroporation. They were cultured in medium (DMEM with 10% FBS) containing 1 mg/ml G418 for two weeks. Clones of HEK293 cells that stably expressed human IDO1 protein were selected and expanded for IDO inhibition assay.
# The human IDO1/HEK293 cells were seeded at 10,000 cells per 50 μL per well with RPMI/phenol red free media contains 10% FBS in a 384-well black wall clear bottom tissue culture plate (Matrix Technologies LLC) 100 nL of certain concentration of compound was then added to each well using ECHO liquid handling systems. The cells were incubated for 20 hours in 37° C. incubator with 5% CO2.
# The compound treatments were stopped by adding trichloroacetic acid (Sigma-Aldrich) to a final concentration at 0.2%. The cell plate was further incubated at 50° C. for 30 minute. The equal volume supernatant (20 μL) and 0.2% (w/v) Ehrlich reagent (4-dimethylaminobenzaldehyde, Sigma-Aldrich) in glacial acetic acid were mixed in a new clear bottom 384-well plate. This plate was then incubated at room temperature for 30 minute. The absorbance at 490 nm was measured on Envision plate reader.
# Compound IC50 values were calculated using the counts of 500 nM of a reference standard treatment as one hundred percent inhibition, and counts of no compound but DMSO treatment as zero percent inhibition.
# human IDO1, sequence (P14902 whole entry): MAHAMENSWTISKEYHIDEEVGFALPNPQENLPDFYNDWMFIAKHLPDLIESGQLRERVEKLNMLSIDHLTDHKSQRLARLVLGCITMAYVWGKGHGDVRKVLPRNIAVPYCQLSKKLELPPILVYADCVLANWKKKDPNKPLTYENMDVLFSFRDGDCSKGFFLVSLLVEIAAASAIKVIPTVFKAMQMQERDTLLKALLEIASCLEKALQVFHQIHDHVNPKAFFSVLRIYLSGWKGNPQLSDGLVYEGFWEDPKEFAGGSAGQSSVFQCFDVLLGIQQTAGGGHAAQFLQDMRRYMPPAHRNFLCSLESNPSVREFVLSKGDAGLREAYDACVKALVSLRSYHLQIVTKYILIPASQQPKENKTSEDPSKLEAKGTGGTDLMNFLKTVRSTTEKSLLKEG
row,IC50 [nM],Compound
1,< 5,"CCC(CC(=O)O)c1cc(F)c(N(CC(C)C)CC(C)C)c(NC(=O)Cc2ccc(C)cc2)c1 (single isomer, unassigned) [980-1]"
2,< 5,"CCC(CC(=O)O)c1cc(F)c(N(CC(C)C)CC(C)C)c(NC(=O)Nc2ccc(Cl)cc2F)c1 (single isomer, unassigned) [981-1]"
3,< 5,"CCC(CC(=O)O)c1cc(F)c(N(CC(C)C)CC(C)C)c(NC(=O)Nc2ccc(C)c(F)c2)c1 (single isomer, unassigned) [982-1]"
4,< 5,"COCC(CC(=O)O)c1ccc(N(CC(C)C)C2CCCCC2)c(NC(=O)Nc2ccc(Cl)cc2F)c1 (single isomer, unassigned) [985-1]"
5,< 50,"COCC(CC(=O)O)c1ccc(N(CC(C)C)C2CCCCC2)c(NC(=O)Nc2cc(C)on2)c1 (single isomer, unassigned) [987-1]"
6,< 5,"COCC(CC(=O)O)c1ccc(N(CC(C)C)C2CCCCC2)c(NC(=O)Nc2ccc(C)cc2)c1 (single isomer, unassigned) [989-1]"
7,< 50,"COCC(CC(=O)O)c1ccc(N(CC(C)C)C2CCCCC2)c(NC(=O)Nc2cncnc2)c1 (single isomer, unassigned) [991-1]"
8,< 5,"COCC(CC(=O)O)c1ccc(N(CC(C)C)C2CCCCC2)c(NC(=O)Nc2cncnc2)c1 (single isomer, unassigned) [991-2]"
9,< 50,"COCC(CC(=O)O)c1ccc(N(CC(C)C)CC(C)C)c(NC(=O)Nc2ccc(C)cc2)c1 (single isomer, unassigned) [993-1]"
10,< 5,"COCC(CC(=O)O)c1ccc(N(CC(C)C)CC(C)C)c(NC(=O)Nc2ccc(Cl)cc2F)c1 (single isomer, unassigned) [995-1]"
11,> 50,"COCC(CC(=O)O)c1ccc(N(CC(C)C)CC(C)C)c(NC(=O)Nc2cncnc2)c1 (single isomer, unassigned) [997-1]"
12,< 50,"COCC(CC(=O)O)c1ccc(N(CC(C)C)CC(C)C)c(NC(=O)Nc2cncnc2)c1 (single isomer, unassigned) [997-2]"
13,< 50,"COCC(CC(=O)O)c1ccc(N(CC(C)C)CC(C)C)c(NC(=O)Nc2cc(C)on2)c1 (single isomer, unassigned) [999-1]"
14,> 50,"Cc1ccc(CC(=O)Nc2cc(C(CC(=O)O)C(C)C)ccc2N(C)C(C)(C)C)cc1 (single isomer, unassigned) [1007-1]"
15,> 50,"CC(C)C(CC(=O)O)c1ccc(N(C)C(C)(C)C)c(Nc2nc3ccccc3o2)c1 (single isomer, unassigned) [1008-1]"
16,< 5,"COCC(CC(=O)O)c1ccc(N(CC(C)C)C2CCCCC2)c(NC(=O)Nc2ccccc2F)c1 (single isomer, unassigned) [1125 E2]"

row,IC50 [nM],Compound
1,< 5,"Cc1ccc(NC(=O)Nc2cc(C(CC(=O)O)C3CC3)ccc2N(CC(C)C)C2CCOCC2)cc1 (single isomer, unassigned) [1202 E2]"
2,> 50,"CC[C@@H](CC(=O)O)c1ccc(N(CC(C)C)CC(C)C)c(Nc2ccc3nc(C)sc3c2)c1 (single isomer, unassigned) [Example 9]"
3,> 50,"CC[C@H](CC(=O)O)c1ccc(N(CC(C)C)CC(C)C)c(Nc2ccc3nc(C)sc3c2)c1 (single isomer, unassigned) [Example 10]"
4,< 50,"CC[C@@H](CC(=O)O)c1ccc(N(CC(C)C)CC(C)C)c(Nc2ccc(Cl)cc2)c1 (single isomer, unassigned) [Example 11]"
5,< 5,"CCN(c1ccc(C(CC(=O)O)C2CC2)cc1Nc1ccc(C#N)cc1)C1CCOCC1 (single isomer, unassigned) [Example 37, 3-(3-((4-cyanophenyl)amino)-4-(ethyl(tetrahydro-2H-pyran-4-yl)amino)phenyl)-3-cyclopropylpropanoic acid]"
6,> 50,"CCOc1ncc(Nc2cc(C(C)CC(=O)O)ccc2N(CC(C)(C)O)C2CCCCC2)cn1 (single isomer, unassigned) [Example 50, 3-(4-(cyclohexyl(2-hydroxy-2-methylpropyl)amino)-3-((2-ethoxypyrimidin-5-yl)amino)phenyl)butanoic acid]"
7,> 50,"CC(CC(=O)O)c1ccc(N(CC(C)(C)O)C2CCCCC2)c(Nc2ccc(Cl)c(OCC(F)(F)F)c2)c1 (single isomer, unassigned) [Example 51, 3-(3-((4-chloro-3-(2,2,2-trifluoroethoxy)phenyl)amino)-4-(cyclohexyl(2-hydroxy-2-methylpropyl)amino)phenyl)butanoic acid]"
8,> 50,"CCOc1ccc(Nc2cc(C(C)CC(=O)O)ccc2N(CC(C)(C)O)C2CCCCC2)c(F)c1 (single isomer, unassigned) [Example 52, 3-(4-(cyclohexyl(2-hydroxy-2-methylpropyl)amino)-3-((4-ethoxy-2-fluorophenyl)amino)phenyl)butanoic acid]"
9,< 5,"CC(CC(=O)O)c1ccc(N(CC(C)(C)O)C2CCCCC2)c(Nc2ccc3c(c2)OC(F)(F)O3)c1 (single isomer, unassigned) [Example 53, 3-(4-(cyclohexyl(2-hydroxy-2-methylpropyl)amino)-3-((2,2-difluorobenzo[d][1,3]dioxol-5-yl)amino)phenyl)butanoic acid]"
10,< 50,"CCOc1ncc(Nc2cc(C(C)CC(=O)O)ccc2N(CC(C)(C)O)C2CCCCC2)cn1 (single isomer, unassigned) [Example 54, 3-(4-(cyclohexyl(2-hydroxy-2-methylpropyl)amino)-3-((2-ethoxypyrimidin-5-yl)amino)phenyl)butanoic acid]"
11,< 50,"CCOc1ccc(Nc2cc(C(C)CC(=O)O)ccc2N(CC(C)(C)O)C2CCCCC2)c(F)c1 (single isomer, unassigned) [Example 56, 3-(4-(cyclohexyl(2-hydroxy-2-methylpropyl)amino)-3-((4-ethoxy-2-fluorophenyl)amino)phenyl)butanoic acid]"
12,< 5,"CCOc1ncc(Nc2cc(C(CC)CC(=O)O)ccc2N(CC)C2CCCOC2)cn1 (single isomer, unassigned) [Example 69, 3-(3-((2-ethoxypyrimidin-5-yl)amino)-4-(ethyl(tetrahydro-2H-pyran-3-yl)amino)phenyl)pentanoic acid]"
13,< 5,"CCC(CC(=O)O)c1ccc(N(CC)C2CCCOC2)c(Nc2ccc(C#N)cc2)c1 (single isomer, unassigned) [Example 70, 3-(3-((4-cyanophenyl)amino)-4-(ethyl(tetrahydro-2H-pyran-3-yl)amino)phenyl)pentanoic acid]"
14,< 50,"CCC(CC(=O)O)c1ccc(N(CC)C2CCCOC2)c(Nc2cnc(OC)nc2)c1 (single isomer, unassigned) [Example 71, 3-(4-(ethyl(tetrahydro-2H-pyran-3-yl)amino)-3-((2-methoxypyrimidin-5-yl)amino)phenyl)pentanoic acid]"
15,< 5,"CCC(CC(=O)O)c1ccc(N(CC)C2CCCOC2)c(NC(=O)Nc2ccc(C)cc2)c1 (single isomer, unassigned) [Example 73 D1, 3-(4-(Ethyl(tetrahydro-2H-pyran-3-yl)amino)-3-(3-(p-tolyl)ureido)phenyl)pentanoic acid]"
16,< 5,"CCC(CC(=O)O)c1ccc(N(CC)C2CCCOC2)c(NC(=O)Nc2ccc(C)cc2)c1 (single isomer, unassigned) [Example 73 D2, 3-(4-(Ethyl(tetrahydro-2H-pyran-3-yl)amino)-3-(3-(p-tolyl)ureido)phenyl)pentanoic acid]"
